According to patent US20240124422A1, “MUTANT PI3K-ALPHA INHIBITORS AND THEIR USE AS PHARMACEUTICALS” (Prelude Therapeutics Incorporated, priority 2022, published 2024):
Read-outs that look alike come from different tables or passages of the source.

Experiments:
[1] = test system: phosphorylation of AKT on Ser473 as a readout of the PI3K pathway in SKBR3 (PIK3CA WT) cells; experiment: PI3K pathway activation assay, pAKT Ser473 HTRF, SKBR3 cells; type: cell-based; details: two hours of treatment
Method: The inhibitory activity of compounds was evaluated by measuring phosphorylation of AKT on Ser473 as a readout of the PI3K pathway using HTRF (CisBio catalog number: 64AKSPE). These studies were conducted in the T-47D (heterozygous PIK3CA H1047R) and SKBR3 (PIK3CA WT) cell lines. Cells were maintained in a 37° C. incubator at 5% CO2 in the following media: T-47D: RPMI 1640, ATCC© Modification (Gibco, A10491-01) supplemented with 10% v/v FBS (Gibco, 26140-079), 1% penicillin streptomycin (Gibco, 15140-122), and 7.4 ug/mL insulin (MilliporeSigma, I9278); SKBR3: McCoy's 5a (Modified) Medium (Gibco, 16600-082) supplemented with 10% v/v FBS (Gibco, 26140-079). Cells were seeded in 384-well plates at a density of 4,000 cells/well. Compounds dissolved in DMSO were added using a digital dispense (D300E, Tecan) 10-point serial dilution. After two hours of treatment, cells were lysed for thirty minutes and then incubated with detection reagents per HTRF kit material and manufacturer's instructions. Fluorescence signal was measured with a multimode plate reader (Envision 2105, Perkin Elmer). Fluorescent signal was normalized to background and DMSO controls to obtain percent inhibition/activity for each compound.

[2] = test system: phosphorylation of AKT on Ser473 as a readout of the PI3K pathway in T-47D (heterozygous PIK3CA H1047R) cells; experiment: PI3K pathway activation assay, pAKT Ser473 HTRF, T-47D cells; type: cell-based; details: two hours of treatment
Procedure, shortened: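 pAKT Ser473 measured by HTRF in SKBR3 (PIK3CA WT) and T-47D (PIK3CA H1047R) cells, 4,000/well. Signal normalised to background and DMSO controls as percent inhibition.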

IC50 ([2]; Homo sapiens, T47D, 2 h) [µM]	SMILES	also measured
< 0.5	Cc1cc(C(C)Nc2ccccc2C(=O)O)c2nc(N3CC4CC4C3)n(C)c(=O)c2c1 (single isomer, unassigned) [Example 24, 2-((1-(2-(3-azabicyclo[3.1.0]hexan-3-yl)-3,6-dimethyl-4-oxo-3,4-dihydro-quinazolin-8-yl)ethyl)amino)benzoic acid]	IC50 ([1]; Homo sapiens, SK-BR-3, 2 h): > 10 µM
< 0.5	Cc1cc(C(C)Nc2ccccc2C(=O)O)c2nc(N3Cc4ccccc4C3)n(C(C)C)c(=O)c2c1 (single isomer, unassigned) [Example 27, 2-((1-(2-(isoindolin-2-yl)-3-isopropyl-6-methyl-4-oxo-3,4-dihydroquinazolin-8-yl)ethyl)amino)benzoic acid]	IC50 ([1]; Homo sapiens, SK-BR-3, 2 h): > 10 µM
< 0.5	Cc1cc(C(C)Nc2ccccc2C(=O)O)c2nc(N3Cc4cccnc4C3)n(C)c(=O)c2c1 (single isomer, unassigned) [Example 67, 2-((1-(2-(5,7-Dihydro-6H-pyrrolo[3,4-b]pyridin-6-yl)-3,6-dimethyl-4-oxo-3,4-dihydroquinazolin-8-yl)ethyl)amino)benzoic acid]	IC50 ([1]; Homo sapiens, SK-BR-3, 2 h): > 10 µM
< 0.5	[2H]C([2H])([2H])c1cc(C(C)Nc2ccccc2C(=O)O)c2nc(N3CC4CC4C3)n(C)c(=O)c2c1 (single isomer, unassigned) [Example 68]	IC50 ([1]; Homo sapiens, SK-BR-3, 2 h): > 10 µM
< 0.5	Cc1cc(C(C)Nc2ccccc2C(=O)O)c2nc(N3CC4CCC3C4)n(C)c(=O)c2c1 (single isomer, unassigned) [Example 99, 2-((1-(2-(2-Azabicyclo[2.2.1]heptan-2-yl)-3,6-dimethyl-4-oxo-3,4-dihydro-quinazolin-8-yl)ethyl)amino)benzoic acid]	IC50 ([1]; Homo sapiens, SK-BR-3, 2 h): > 10 µM
	Cc1cc(C(C)Nc2ccccc2C(=O)O)c2nc(N3CC4CCC3C4)n(C)c(=O)c2c1 (single isomer, unassigned) [Example 100, 2-((1-(2-(2-Azabicyclo[2.2.1]heptan-2-yl)-3,6-dimethyl-4-oxo-3,4-dihydro-quinazolin-8-yl)ethyl)amino)benzoic acid]	IC50 [1]: > 10 µM; IC50 ([2]; read-out: T47D pAKT IC50): < 0.5 µM
< 0.5	[2H]C([2H])([2H])n1c(N2CC3CC3C2)nc2c(C(C)Nc3ccccc3C(=O)O)cc(C)cc2c1=O (single isomer, unassigned) [Example 104, 2-((1-(2-(3-Azabicyclo[3.1.0]hexan-3-yl)-6-methyl-3-(methyl-d3)-4-oxo-3,4-dihydroquinazolin-8-yl)ethyl)amino)benzoic acid]	IC50 ([1]; Homo sapiens, SK-BR-3, 2 h): > 10 µM
< 0.5	Cc1cc(C(C)Nc2ccccc2C(=O)O)c2nc(N3CC4(C3)CC(F)(F)C4)n(C)c(=O)c2c1 (centres unmarked) [Example 109, 2-[1-[2-(6,6-difluoro-2-azaspiro[3.3]heptan-2-yl)-3,6-dimethyl-4-oxoquinazolin-8-yl]ethylamino]benzoic acid]	
0.5 to 10	Cc1cc(C(C)Nc2ccccc2C(=O)O)c2nc(N3CCC(NC(=O)OC(C)(C)C)C3)n(C)c(=O)c2c1 (centres unmarked) [Example 110, 2-[1-[3,6-dimethyl-2-[3-[(2-methylpropan-2-yl)oxycarbonylamino]pyrrolidin-1-yl]-4-oxoquinazolin-8-yl]ethylamino]benzoic acid]	
< 0.5	Cc1cc(C(C)Nc2ccccc2C(=O)O)c2nc(N3CC4CCC4C3)n(C)c(=O)c2c1 (centres unmarked) [Example 112, 2-[1-[2-(3-azabicyclo[3.2.0]heptan-3-yl)-3,6-dimethyl-4-oxoquinazolin-8-yl]ethylamino]benzoic acid]	
< 0.5	Cc1cc(C(C)Nc2ccccc2C(=O)O)c2nc(N3C[C@H]4CCC[C@H]4C3)n(C)c(=O)c2c1 (stereo partly drawn) [Example 113, 2-[1-[3,6-dimethyl-4-oxo-2-[(3aR,6aS)-3,3a,4,5,6,6a-hexahydro-1H-cyclopenta[c]pyrrol-2-yl]quinazolin-8-yl]ethylamino]benzoic acid]	
0.5 to 10	Cc1cc(C(C)Nc2ccccc2C(=O)O)c2nc(N3CCCC34CC4)n(C)c(=O)c2c1 (centres unmarked) [Example 114, 2-((1-(3,6-dimethyl-4-oxo-2-(4-azaspiro[2.4]heptan-4-yl)-3,4-dihydroquinazolin-8-yl)ethyl)amino)benzoic acid]	
< 0.5	Cc1cc(C(C)Nc2ccccc2C(=O)O)c2nc(N3CCCC3(C)C)n(C)c(=O)c2c1 (centres unmarked) [Example 115, 2-((1-(2-(2,2-dimethylpyrrolidin-1-yl)-3,6-dimethyl-4-oxo-3,4-dihydroquinazolin-8-yl)ethyl)amino)benzoic acid]	
0.5 to 10	Cc1cc(C(C)Nc2ccccc2C(=O)O)c2nc(N3CC4CC3C4)n(C)c(=O)c2c1 (centres unmarked) [Example 117, 2-((1-(2-(2-Azabicyclo[2.1.1]hexan-2-yl)-3,6-dimethyl-4-oxo-3,4-dihydroquinazolin-8-yl)ethyl)amino)benzoic acid]	
0.5 to 10	CSc1ncc(NC(C)c2cc(C)cc3c(=O)n(C)c(N4CC5CC5C4)nc23)c(C(=O)O)n1 (centres unmarked) [Example 118, 5-((1-(2-(3-Azabicyclo[3.1.0]hexan-3-yl)-3,6-dimethyl-4-oxo-3,4-dihydroquinazolin-8-yl)ethyl)amino)-2-(methylthio)pyrimidine-4-carboxylic acid]	
< 0.5	Cc1cc(C(C)Nc2cccc(F)c2C(=O)O)c2nc(N3CC4CC4C3)n(C)c(=O)c2c1 (centres unmarked) [Example 121, 2-[1-[2-(3-Azabicyclo[3.1.0]hexan-3-yl)-3,6-dimethyl-4-oxoquinazolin-8-yl]ethylamino]-6-fluorobenzoic acid]	
0.5 to 10	COc1ccc(NC(C)c2cc(C)cc3c(=O)n(C)c(N4CC5CC5C4)nc23)c(C(=O)O)c1 (centres unmarked) [Example 122, 2-[1-[2-(3-Azabicyclo[3.1.0]hexan-3-yl)-3,6-dimethyl-4-oxoquinazolin-8-yl]ethylamino]-5-methoxybenzoic acid]	
< 0.5	CSc1ccc(NC(C)c2cc(C)cc3c(=O)n(C)c(N4CC5CC5C4)nc23)c(C(=O)O)n1 (centres unmarked) [Example 124, 3-[1-[2-(3-Azabicyclo[3.1.0]hexan-3-yl)-3,6-dimethyl-4-oxoquinazolin-8-yl]ethylamino]-6-methylsulfanylpyridine-2-carboxylic acid]	
0.5 to 10	Cc1cc(C(C)Nc2cc(F)ncc2C(=O)O)c2nc(N3CC4CC4C3)n(C)c(=O)c2c1 (centres unmarked) [Example 125, 4-((1-(2-(3-Azabicyclo[3.1.0]hexan-3-yl)-3,6-dimethyl-4-oxo-3,4-dihydroquinazolin-8-yl)ethyl)amino)-6-fluoronicotinic acid]	
0.5 to 10	Cc1cc(C(C)Nc2cc(Cl)nnc2C(=O)O)c2nc(N3CC4CC4C3)n(C)c(=O)c2c1 (centres unmarked) [Example 126, 4-((1-(2-(3-Azabicyclo[3.1.0]hexan-3-yl)-3,6-dimethyl-4-oxo-3,4-dihydroquinazolin-8-yl)ethyl)amino)-6-chloropyridazine-3-carboxylic acid]	

SMILES	IC50 ([2]; Homo sapiens, T47D, 2 h) [µM]	also measured
Cc1cc(C(C)Nc2ccccc2C(=O)O)c2nc(N3C4CCC3CC4)n(C)c(=O)c2c1 (centres unmarked) [Example 111, 2-[1-[2-(7-azabicyclo[2.2.1]heptan-7-yl)-3,6-dimethyl-4-oxoquinazolin-8-yl]ethylamino]benzoic acid]	< 0.5	
Cc1cc(C(C)Nc2ccccc2C(=O)O)c2nc(N3CC4CC(C4)C3)n(C)c(=O)c2c1 (centres unmarked) [Example 116, 2-((1-(2-(3-Azabicyclo[3.1.1]heptan-3-yl)-3,6-dimethyl-4-oxo-3,4-dihydroquinazolin-8-yl)ethyl)amino)benzoic acid]	< 0.5	
